The text below walks through data of the NIST ThermoML archive (doi:10.1016/j.jct.2013.12.029).

Numbers after ± are expanded uncertainties.

The conditions of this data set: 101.33 kPa, Liquid, Vibrating tube method.

With `CCCCCC[N+]1(C)CCCCC1.O=S(=O)([N-]S(=O)(=O)C(F)(F)F)C(F)(F)F`, the mass density (commonly the mass of a sample divided by its volume) was 1329.5 ± 1.1 kg/m3 (293 K) and 1325.4 ± 1.1 kg/m3 (298.15 K).

Regarding `CCCC[N+]1(C)CCCCC1.O=S(=O)([N-]S(=O)(=O)C(F)(F)F)C(F)(F)F`, under “298.15 K”, the mass density turned out to be 1379.2 ± 1.1 kg/m3.

In the case of `CCC[N+]1(C)CCCCC1.O=S(=O)([N-]S(=O)(=O)C(F)(F)F)C(F)(F)F`, under “298.15 K”, the mass density amounted to 1409.8 ± 1.1 kg/m3.

As to `CC(C)=O` [acetone], the mass density (298.15 K) turned out to be 785.32 ± 1 kg/m3.

For `c1ccc2sccc2c1` [benzo[b]thiophene], under “298.15 K”, the mass density stood at 1427 ± 1 kg/m3.

Take `CCCCCCC` [heptane]: the mass density (298.15 K) is listed as 679.54 ± 1 kg/m3.

As to `CCCO` [propan-1-ol], the mass density (298.15 K) was 799.52 ± 1 kg/m3.

For the compound `c1ccsc1` [thiophene], the mass density (298.15 K) was 1058.92 ± 1 kg/m3.
